The subject of one assay is circBRIP1 in HCT116 cells. Briefly: DHX9 circBRIP1 cellular target engagement TaqMan Multiplex assay (qPCR). The format is cell-based. To be noted: Homo sapiens, HCT-116, circBRIP1, HCT116 cells; * Taqman assay was used; read-out: DHX9 Cellular Target Engagement EC50. (In general: Real-time PCR tracks product formation cycle by cycle.)
With `Cc1cc(N2CC(F)(F)C2)cnc1-n1cc(C(=O)Nc2cc(Cl)cc(NS(C)(=O)=O)c2)cc1C` [Example 419], the EC50 – broadly, the concentration at which the effect is half-maximal – is 0.121 µM.
Turning to `Cc1sc(C(=O)Nc2cc(Cl)cc(NS(=O)(=O)CCO)c2)cc1-c1ncc(OC(C)C)cn1` [Example 582], the EC50 was found to be 0.21 µM.
Still for that read-out and setting: next, `CS(=O)(=O)Nc1cc(Cl)cc(NC(=O)c2cc(-c3ccc(N4CC(F)(F)C4)cn3)cs2)c1` [Example 487]: 0.654 µM; `Cc1sc(C(=O)Nc2cc(Cl)cc(NS(C)(=O)=O)c2)nc1-c1ccc(F)cn1` [Example 716]: over 10 µM.
Still for that read-out and setting: next, `Cn1cc(C(=O)Nc2cc(Cl)cc(NS(=O)(=O)CCO)c2)cc1-c1ncc(F)cc1F` [Example 581]: 1.68 µM.
`Cn1cc(C(=O)Nc2cc(Cl)cc(NS(C)(=O)=O)c2)cc1-c1ccc(N2CC(S(C)(=O)=O)C2)cn1` [Example 519]: the EC50 came to 0.191 µM.
Still for that read-out and setting: the result for `CS(=O)(=O)Nc1cc(Cl)cc(NC(=O)c2cc(-c3ncc(F)cn3)n(C3CNC3)c2)c1` [Example 652] reads 3.77 µM; that for `Cc1sc(C(=O)Nc2cc(Cl)cc(NS(C)(=O)=O)c2)cc1-c1ncc(F)cc1N1CCS(=O)(=O)CC1` [Example 503], 9.03 µM; that for `Cc1cc(N2CC(F)(F)C2)cnc1-c1cc(C(=O)Nc2cc(Cl)cc(NS(C)(=O)=O)c2)cn1C` [Example 461], 0.158 µM.
Same read-out and setting: the result for `COc1cnc(-c2cc(C(=O)Nc3cc(Cl)cc(NS(C)(=O)=O)c3)cn2CC(F)(F)F)nc1` [Example 563] reads 0.327 µM.

A further assay relates to circBRIP1 in HCT116 cells. Put plainly: DHX9 circBRIP1 cellular target engagement SYBR Green assay (qPCR). The format is cell-based. As to conditions: Homo sapiens, HCT-116, circBRIP1, HCT116 cells; SyBr assay (marked ^+); read-out: DHX9 Cellular Target Engagement EC50.
Take `CS(=O)(=O)Nc1cc(Cl)cc(NC(=O)c2cnn(-c3ncccc3OCc3cncnc3)c2)c1` [Example 188]: the half-maximal effective concentration (EC50) worked out at 1.46 µM.
Turning to `Cc1sc(C(=O)Nc2cc(Cl)cc(NS(C)(=O)=O)c2)cc1-c1c(F)cccc1OCc1ccccc1` [Example 240], the EC50 worked out at 0.228 µM.
For `Cn1cc(C(=O)Nc2cc(Cl)cc(NS(C)(=O)=O)c2)cc1Br` [Example 83, 5-bromo-N-(3-chloro-5-(methylsulfonamido)phenyl)-1-methyl-1H-pyrrole-3-carboxamide], the EC50 is 0.911 µM.
On to `CS(=O)(=O)Nc1cc(Cl)cc(NC(=O)c2cnn(CCCO)c2)c1` [Example 126, N-(3-chloro-5-(methylsulfonamido)phenyl)-1-(3-hydroxypropyl)-1H-pyrazole-4-carboxamide], for which the EC50 is over 10 µM.
On to `Cc1cccn2cc(C(=O)Nc3cc(Cl)cc(NS(C)(=O)=O)c3)cc12` [Example 329], for which the EC50 worked out at 4.98 µM.
As for `Cc1cn2cc(C(=O)Nc3cc(Cl)cc(NS(C)(=O)=O)c3)cc2c(C)n1` [Example 322], the EC50 is over 10 µM.
With `CS(=O)(=O)Nc1cc(Cl)cc(NC(=O)c2cnn(-c3ncccc3OCc3cn[nH]c3)c2)c1` [Example 206], the EC50 came to 1.06 µM.
On to `CS(=O)(=O)Nc1cc(Cl)cc(NC(=O)c2cc(N3CCNCC3)cs2)c1` [Example 244], for which the EC50 was over 10 µM.
For the compound `CS(=O)(=O)Nc1cc(Br)cc(NC(=O)c2cccc(-n3cccn3)c2)c1` [Example 118], the EC50 was determined as 2.93 µM.
As for `CN(C)S(=O)(=O)c1ccc(-n2cc(C(=O)Nc3cc(Cl)cc(NS(C)(=O)=O)c3)cn2)nc1` [Example 200], the EC50 was 1.31 µM.
In the case of `Cc1cc(C(=O)Nc2cc(Cl)cc(NS(C)(=O)=O)c2)cn1-c1ccc(N2CCCC2)cn1` [Example 270], the EC50 was determined as 0.101 µM.
On the same count and under the same terms, the result for `CS(=O)(=O)Nc1cc(Cl)cc(NC(=O)c2cc(-c3ccc(N4CC5(COC5)C4)cn3)n(CC(F)(F)F)c2)c1` [Example 278] reads 0.251 µM; that for `CS(=O)(=O)Nc1cc(Cl)cc(NC(=O)c2cnn(-c3ccc(S(C)(=O)=O)cn3)c2)c1` [Example 198], over 10 µM.
Regarding `CSc1cccnc1-n1cc(C(=O)Nc2cc(Cl)cc(NS(C)(=O)=O)c2)cn1` [Example 219], the EC50 was 0.265 µM.
Turning to `CS(=O)(=O)Nc1cc(Cl)cc(NC(=O)c2cc3ncccc3s2)c1` [Example 289], the EC50 was 6.55 µM.
Consider `Cn1cc(C(=O)Nc2cc(Cl)cc(NS(C)(=O)=O)c2)cc1-c1ccc(N2CCOCC2)cn1` [Example 273], for which the EC50 was 0.0375 µM.
On the same count and under the same terms, the result for `CS(=O)(=O)Nc1cc(Br)cc(NC(=O)c2cnn(-c3ccccc3C(O)C(F)(F)F)c2)c1` (centres unmarked) [Example 103, N-(3-bromo-5-(methylsulfonamido)phenyl)-1-(2-(2,2,2-trifluoro-1-hydroxyethyl)phenyl)-1H-pyrazole-4-carboxamide] reads 5.31 µM; that for `CC(c1ccccc1)n1cc(C(=O)Nc2cc(Cl)cc(NS(C)(=O)=O)c2)cn1` (centres unmarked) [Example 142, N-(3-chloro-5-(methylsulfonamido)phenyl)-1-(1-phenylethyl)-1H-pyrazole-4-carboxamide], over 10 µM.
On the same count and under the same terms, the result for `CS(=O)(=O)Nc1cc(Cl)cc(NC(=O)c2cc(N3CCOCC3)cs2)c1` [Example 245] reads 4.31 µM; that for `CN(C)C(=O)Cc1cccnc1-c1csc(C(=O)Nc2cc(Cl)cc(NS(C)(=O)=O)c2)c1` [Example 221], 0.121 µM; that for `CS(=O)(=O)Nc1cc(Cl)cc(NC(=O)c2cnn(C3CC4(COC4)C3)c2)c1` [Example 128], over 10 µM.
Still for that read-out and setting: next, `CC(Oc1cccnc1-n1cc(C(=O)Nc2cc(Cl)cc(NS(C)(=O)=O)c2)cn1)c1ccccc1` (centres unmarked) [Example 62]: 6.8 µM.
Take `CN1CCN(c2cnc(-n3cc(C(=O)Nc4cc(Cl)cc(NS(C)(=O)=O)c4)cn3)c(OCc3cccnc3)c2)CC1=O` [Example 193]: the EC50 is over 10 µM.
With `CS(=O)(=O)Nc1cc(Cl)cc(NC(=O)c2cnn(-c3ccc(C4CCOCC4)cn3)c2)c1` [Example 190], the EC50 stood at 0.373 µM.
Still for that read-out and setting: the result for `CS(=O)(=O)Nc1cc(Cl)cc(NC(=O)c2cc(N3CCN(CC(F)(F)F)CC3)cs2)c1` [Example 246] reads 3.93 µM.
Consider `CC(=O)N1CCC(n2cc(C(=O)Nc3cc(Cl)cc(NS(C)(=O)=O)c3)cn2)CC1` [Example 317], for which the EC50 was over 10 µM.
Consider `CCS(=O)(=O)Nc1cc(Cl)cc(NC(=O)c2cc(-c3ncc(F)cn3)c(C)s2)c1` [Example 344], for which the half-maximal effective concentration (EC50) is 0.153 µM.
In the case of `CS(=O)(=O)Nc1cc(Cl)cc(NC(=O)c2cnn(C3CCN(CC(F)(F)F)CC3)c2)c1` [Example 316], the concentration giving a half-maximal response (EC50) came to 4.92 µM.
Consider `CS(=O)(=O)Nc1cc(Cl)cc(NC(=O)c2c[nH]c(-c3ccccc3)n2)c1` [Example 6], for which the EC50 was determined as 9.34 µM.
For `CS(=O)(=O)Nc1cc(Cl)cc(NC(=O)c2cc(-c3ccc(N4CCOCC4)cn3)n(CC(F)(F)F)c2)c1` [Example 275], the EC50 turned out to be 0.19 µM.
With `CS(=O)(=O)Nc1cc(Cl)cc(NC(=O)c2cc3cnccn3c2)c1` [Example 330], the EC50 came to 4.87 µM.
As to `CS(=O)(=O)Nc1cc(Cl)cc(NC(=O)c2cnn(C3CCOC3)c2)c1` (centres unmarked) [Example 182], the EC50 was over 10 µM.
`Cc1sc(C(=O)Nc2cc(Br)cc(NS(C)(=N)=O)c2)cc1-c1ccccn1` (centres unmarked) [Example 123]: the EC50 is 6.59 µM.
As to `CCS(=O)(=O)Nc1cc(Cl)cc(NC(=O)c2cc(-c3ncc(F)cn3)cs2)c1` [Example 343], the EC50 was 0.189 µM.
Still for that read-out and setting: next, `Cc1cccc2cc(C(=O)Nc3cc(Cl)cc(NS(C)(=O)=O)c3)cn12` [Example 304]: 5.98 µM; `CN1CCN(c2ccc(-n3cc(C(=O)Nc4cc(Br)cc(NS(C)(=O)=O)c4)cn3)nc2)CC1=O` [Example 88]: over 10 µM; `Cc1ccc(C(=O)Nc2cc(Br)cc(NS(C)(=O)=O)c2)cc1-n1cccn1` [Example 10]: 12.3 µM.
For the compound `CS(=O)(=O)Nc1cc(Br)cc(NC(=O)c2cnn(-c3ccc(F)cn3)c2)c1` [Example 39], the EC50 was 0.884 µM.
For the compound `CS(=O)(=O)Nc1cc(Br)cc(NC(=O)c2cnn(-c3ncccn3)c2)c1` [Example 50, N-(3-bromo-5-(methylsulfonamido)phenyl)-1-(pyrimidin-2-yl)-1H-pyrazole-4-carboxamide], the EC50 was 0.895 µM.
Take `CS(=O)(=O)Nc1cc(Br)cc(NC(=O)c2cc(-n3cccn3)cs2)c1` [Example 60]: the concentration for a half-maximal effect (EC50) worked out at 0.201 µM.
Turning to `CC(=O)NC1CC2(C1)CC(n1cc(C(=O)Nc3cc(Cl)cc(NS(C)(=O)=O)c3)cn1)C2` (centres unmarked) [Example 310], the EC50 was over 10 µM.
As to `CCS(=O)(=O)Nc1cc(Cl)cc(NC(=O)c2cc(-c3ncc(F)cc3C)cs2)c1` [Example 226], the EC50 amounted to 0.388 µM.

Staying with this assay, now noted: Homo sapiens, HCT-116, circBRIP1, HCT116 cells; ^+ SyBr assay was used; read-out: DHX9 Cellular Target Engagement EC50.
As for `CS(=O)(=O)Nc1cc(Cl)cc(NC(=O)c2cnn(-c3ccccc3COc3cncc(F)c3)c2)c1` [Example 428], the EC50 was found to be 0.201 µM.
For the compound `COCc1cc(C(=O)Nc2cc(Cl)cc(NS(C)(=O)=O)c2)cn1-c1ncccc1F` [Example 682], the EC50 stood at 0.149 µM.
For `CS(=O)(=O)Nc1cc(Cl)cc(NC(=O)c2cc(-c3ncc(F)cn3)c(C3CC3)s2)c1` [Example 448], the EC50 was 2.73 µM.
On the same count and under the same terms, the result for `Cc1cc(C(=O)Nc2cc(Cl)cc(NS(C)(=O)=O)c2)cn1-c1ccc(C#N)cn1` [Example 425] reads 0.193 µM; that for `COc1cnn(-c2csc(C(=O)Nc3cc(Cl)cc(NS(C)(=O)=O)c3)c2)c1` [Example 435], 1.15 µM.
The same measure, in the same setting: next, `Cc1sc(C(=O)Nc2cc(Cl)cc(NS(C)(=O)=O)c2)cc1-c1ncc(F)cc1-c1ccn(C)c(=O)c1` [Example 605]: 5.33 µM; `CS(=O)(=O)Nc1cc(Cl)cc(NC(=O)c2cnn(-c3c(F)cccc3OCc3cnco3)c2)c1` [Example 721]: 1.57 µM.
`CS(=O)(=O)Nc1cc(Cl)cc(NC(=O)c2cnn(-c3ncccc3-c3cncc(F)c3)c2)c1` [Example 392]: the EC50 is 2.8 µM.

Still in this assay, the particulars now being: Homo sapiens, HCT-116, read-out: DHX9 Cellular Target Engagement EC50.
As for `CS(=O)(=O)Nc1cc(Cl)cc(NC(=O)c2cnn(-c3ncccc3COc3ccccc3)c2)c1` [Example 167, N-(3-chloro-5-(methylsulfonamido)phenyl)-1-(3-(phenoxymethyl)pyridin-2-yl)-1H-pyrazole-4-carboxamide], the half-maximal effective concentration (EC50) was determined as 1.75 µM.

The assay is the same for the next values; noted with them: circBRIP1, HCT116 cells; SyBr assay (marked ^+); read-out: DHX9 Cellular Target Engagement EC50.
Take `CCc1sc(C(=O)Nc2cc(Cl)cc(NS(C)(=O)=O)c2)cc1-c1ccccn1` [Example 232]: the EC50 amounted to 0.061 µM.

For the origin of these results see patent US12162867B2, “Inhibitors of RNA helicase DHX9 and uses thereof” (ACCENT THERAPEUTICS, INC., priority 2022, dated 2024).
